From patent US7741338B2, “Macrolides” (Novartis AG, priority 1998, dated 2010) come the findings set out here.

One series concerns localized GvHD. The series can be described thus: localized GvHD, inhibition of lymph node swelling. Format: in vivo. Conditions: dosage of 3 mg. As for the experimental part:
(§1) In the localized GvHD, maximal inhibition (70-80%) of lymph node swelling is achieved with a dosage of 3 mg with 40-O-(2-hydroxy)ethyl-rapamycin in crystalline form.

The nature of series [1]: in vitro and in vivo immunosuppressive activity. Conditions: crystalline form compared with amorphous form. The protocol:
as §1

A short description of series [2]: storage stability, sum of by-products and degradation products after 1 week storage. In kind it is physicochemical. As to conditions: 50° C. in open flask. The source says: The sum of by-products and degradation products in % after 1 week storage are as follows: […]

Regarding `CO[C@H]1C[C@@H]2CC[C@@H](C)[C@@](O)(O2)C(=O)C(=O)N2CCCC[C@H]2C(=O)O[C@H]([C@H](C)C[C@@H]2CC[C@@H](OCCO)[C@H](OC)C2)CC(=O)[C@H](C)/C=C(\C)[C@@H](O)[C@@H](OC)C(=O)[C@H](C)C[C@H](C)/C=C/C=C/C=C/1C` [40-O-(2-hydroxy)ethyl-rapamycin], the “maximal inhibition of lymph node swelling” value in the series with localized GvHD is recorded as 70-80%. For the same compound, the “in vitro and in vivo immunosuppressive activity” value in series [1] is listed as “comparable to that of the amorphous form”.

In the case of `CO[C@H]1C[C@@H]2CC[C@@H](C)[C@@](O)(O2)C(=O)C(=O)N2CCCC[C@H]2C(=O)O[C@H]([C@H](C)C[C@@H]2CC[C@@H](OCCO)[C@H](OC)C2)CC(=O)[C@H](C)/C=C(\C)[C@@H](O)[C@@H](OC)C(=O)[C@H](C)C[C@H](C)/C=C/C=C/C=C/1C` [Without BHT, 40-O-(2-hydroxy)ethyl-rapamycin], the “sum of by-products and degradation products” value in series [2] is more than 10%.
